{
  "source": "PubChem BioAssay AID977614",
  "about": "(Broad Institute, 2014)",
  "note": "The source made the active and inactive calls.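 Rule for the calls: active = parasite count per well reduced by over 3 SD from the mean, with host cell number above 80% of untreated; inactive = the rest.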",
  "data": [
    {"test_system": "L. donovani amastigotes in THP-1 macrophages, DAPI imaging, 72 h", "assay": "L. donovani intracellular amastigote growth inhibitors, imaging, THP-1 host macrophages, single concentration (AID 977614);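 note: signal is the parasite per host cell ratio from DAPI stained kinetoplasts and nuclei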", "values": [
      {"molecule": "O=C(NC[C@@H]1N[C@@H](CO)[C@@H]1c1ccc(-c2ccccc2F)cc1)c1ccccn1", "AC50": "> 10 µM (inactive)"},
      {"molecule": "CCC(=O)N1C[C@H]2[C@@H](c3ccccc31)[C@H](CO)N2Cc1ccc(F)cc1", "AC50": "> 10 µM (inactive)"},
      {"molecule": "C[C@@H]1CN([C@@H](C)CO)C(=O)CCCn2nncc2CO[C@@H]1CN(C)Cc1cccc(C(F)(F)F)c1", "AC50": "> 10 µM (inactive)"},
      {"molecule": "C[C@@H]1CN([C@H](C)CO)C(=O)CCCn2nncc2CO[C@@H]1CN(C)Cc1ccc2c(c1)OCCN2C", "AC50": "> 10 µM (inactive)"},
      {"molecule": "C[C@H](CO)N1C[C@H](C)[C@@H](CN(C)CC2CCCCC2)OCc2cnnn2CCCC1=O", "AC50": "> 10 µM (inactive)"},
      {"molecule": "CC(=O)N1[C@H](CO)[C@H](c2ccc(-c3ccccc3F)cc2)[C@@H]1CNC(C)C", "AC50": "> 10 µM (inactive)"},
      {"molecule": "C[C@H](CO)N1C[C@H](C)[C@H](CN(C)S(=O)(=O)c2ccccc2C#N)OCc2cnnn2CCCC1=O", "AC50": "> 10 µM (inactive)"},
      {"molecule": "COc1ccccc1-c1ccc([C@H]2[C@@H](CO)N(C(C)=O)[C@@H]2CN(C)C(C)=O)cc1", "AC50": "> 10 µM (inactive)"},
      {"molecule": "OC[C@@H]1[C@H]2c3ccccc3NC[C@H]2N1Cc1ccccc1Cl", "AC50": "> 10 µM (inactive)"},
      {"molecule": "CNC[C@@H]1OCc2cn(nn2)CCCC(=O)N([C@H](C)CO)C[C@@H]1C", "AC50": "> 10 µM (inactive)"},
      {"molecule": "COc1ccccc1NC(=O)N1C[C@@H]2[C@H](c3ccccc31)[C@H](CO)N2C(=O)C1CCCC1", "AC50": "> 10 µM (inactive)"},
      {"molecule": "CCCNC(=O)N1[C@@H]2CN(C(=O)Nc3cccc(Cl)c3)c3ccccc3[C@@H]2[C@@H]1CO", "AC50": "> 10 µM (inactive)"},
      {"molecule": "C[C@H]1CN([C@@H](C)CO)C(=O)CCCn2nncc2CO[C@@H]1CN(C)S(=O)(=O)c1ccc2c(c1)OCCCO2", "AC50": "> 10 µM (inactive)"},
      {"molecule": "CNC[C@H]1OCc2cnnn2CCCC(=O)N([C@@H](C)CO)C[C@H]1C", "AC50": "> 10 µM (inactive)"},
      {"molecule": "COCC(=O)N1C[C@@H]2[C@H](c3ccccc31)[C@H](CO)N2Cc1cc(F)ccc1F", "AC50": "> 10 µM (inactive)"},
      {"molecule": "C[C@@H]1CN([C@@H](C)CO)C(=O)CCCn2nncc2CO[C@H]1CN(C)C(=O)Oc1cccc2ccccc12", "AC50": "> 10 µM (inactive)"},
      {"molecule": "CC(=O)N1[C@H](CO)[C@@H](c2ccccc2)[C@H]1CNC(=O)CN1CCOCC1", "AC50": "> 10 µM (inactive)"},
      {"molecule": "C[C@H](CO)N1C[C@H](C)[C@@H](CN(C)C(=O)c2ccc3ccn(C)c3c2)OCc2cnnn2CCCC1=O", "AC50": "> 10 µM (inactive)"},
      {"molecule": "C[C@@H]1CN([C@@H](C)CO)C(=O)CCCn2cc(nn2)CO[C@H]1CN(C)Cc1ccccc1", "AC50": "> 10 µM (inactive)"},
      {"molecule": "C[C@H](CO)N1C[C@H](C)[C@@H](CN(C)C(=O)NC2CCCCC2)OCc2cn(nn2)CCCC1=O", "AC50": "> 10 µM (inactive)"},
      {"molecule": "C/C=C/c1ccc([C@@H]2[C@H](CO)N(C(C)=O)[C@H]2CNC(=O)c2ccccc2)cc1", "AC50": "> 10 µM (inactive)"},
      {"molecule": "O=C(Nc1ccc(F)cc1)N1[C@H](CO)[C@H]2c3ccccc3NC[C@H]21", "AC50": "> 10 µM (inactive)"},
      {"molecule": "C[C@H](CO)N1C[C@H](C)[C@H](CN(C)C(=O)c2ccc(N3CCN(C)CC3)cc2)OCc2cnnn2CCCC1=O", "AC50": "> 10 µM (inactive)"},
      {"molecule": "O=C(CC(F)(F)F)N1C[C@@H]2[C@H](c3ccccc31)[C@@H](CO)N2C(=O)C1CCCCC1", "AC50": "> 10 µM (inactive)"},
      {"molecule": "CCCNC(=O)N(C)C[C@@H]1[C@@H](c2ccccc2)[C@H](CO)N1C(=O)c1ccccc1", "AC50": "> 10 µM (inactive)"},
      {"molecule": "O=C(NC[C@H]1[C@@H](c2ccccc2)[C@H](CO)N1Cc1cccnc1)c1ccccn1", "AC50": "> 10 µM (inactive)"},
      {"molecule": "O=C(Nc1cccc(F)c1)N1C[C@@H]2[C@H](c3ccccc31)[C@H](CO)N2C(=O)Cc1ccccn1", "AC50": "> 10 µM (inactive)"},
      {"molecule": "O=C(C1CCC1)N1C[C@H]2[C@@H](c3ccccc31)[C@H](CO)N2C(=O)Nc1cccc(F)c1", "AC50": "> 10 µM (inactive)"},
      {"molecule": "CCCNC[C@@H]1[C@@H](c2ccc(C3=CCCCC3)cc2)[C@@H](CO)N1C(=O)C1CCC1", "AC50": "> 10 µM (inactive)"},
      {"molecule": "O=C(Nc1ccc(F)cc1)N1C[C@@H]2[C@H](c3ccccc31)[C@H](CO)N2C(=O)c1ccncc1", "AC50": "> 10 µM (inactive)"},
      {"molecule": "CCCNC(=O)N(Cc1cccnc1)C[C@H]1N[C@H](CO)[C@@H]1c1ccccc1", "AC50": "> 10 µM (inactive)"},
      {"molecule": "CCN(C[C@H]1[C@H](c2ccccc2)[C@@H](CO)N1S(C)(=O)=O)C(=O)C1CCCC1", "AC50": "> 10 µM (inactive)"},
      {"molecule": "COc1ccc(CN2[C@H](CO)[C@@H]3c4ccccc4NC[C@@H]32)cc1", "AC50": "> 10 µM (inactive)"},
      {"molecule": "O=C(CC(F)(F)F)N1C[C@@H]2[C@H](c3ccccc31)[C@H](CO)N2C(=O)C1CCCCC1", "AC50": "> 10 µM (inactive)"},
      {"molecule": "O=C(NC[C@H]1N[C@H](CO)[C@H]1c1ccccc1)c1ccccc1F", "AC50": "> 10 µM (inactive)"},
      {"molecule": "CN1C[C@H]2[C@@H](c3ccccc31)[C@H](CO)N2S(=O)(=O)c1ccccc1", "AC50": "> 10 µM (inactive)"},
      {"molecule": "C/C=C/c1ccc([C@@H]2[C@@H](CO)N(C(C)=O)[C@H]2CNC(=O)c2ccccc2)cc1", "AC50": "> 10 µM (inactive)"},
      {"molecule": "CN(C[C@H]1[C@H](c2ccccc2)[C@H](CO)N1Cc1ccccn1)S(C)(=O)=O", "AC50": "> 10 µM (inactive)"}
    ]}
  ]
}
